In patent US9714249B2 (Novartis AG, priority 2013, dated 2017) one finds IC50 data, which are given here for 12 molecules.

As a reminder, the IC50 is the concentration that gives 50% inhibition. A low value points to greater potency.

Conditions in all cases: acetyl-histone H4 peptide
Assay [1] concerns the target BRD2 (His-Brd2(60-472)) (Homo sapiens (Human), UniProt P25440). The assay can be described thus: TR-FRET in-vitro binding assay for BRD2. The procedure:
(§1) All assays were performed in 384 well microtiter plates. Each assay plate contained 8-point serial dilutions for 40 test compounds, plus 16 high- and 16 low controls. Liquid handling and incubation steps were done on an Innovadyne Nanodrop Express equipped with a robotic arm (Thermo CatX, Perkin Elmer/Caliper Twister II) and an incubator (Liconic STX40, Thermo Cytomat 2C450). The assay plates were prepared by addition of 50 nl per well of compound solution in 90% DMSO HummingBird nanodispenser (Zinsser Analytic). The assay was started by stepwise addition of 4.5 μl per well of bromo domain protein (50 mM HEPES, pH 7.5, 0.005% Tween20, 0.1% BSA, 50 mM NaCl, 45 nM His-Brd2(60-472) or 45 nM His-Brd3(20-477) or 45 nM His-Brd4(44-477) all proteins produced in-house) and 4.5 μl per well of peptide solution (50 mM HEPES, pH 7.5, 0.005% Tween20, 0.1% BSA, 50 mM NaCl, 60 nM acetyl-histone H4 (AcK 5, 8, 12, 16) (Biosyntan GmbH)). Reactions were incubated at 30° C. for 35 minutes. Subsequently 4.5 μl per well detection mix (50 mM HEPES, pH 7.5, 0.005% Tween20, 0.1% BSA, 50 mM NaCl, 3 nM Eu-labeled anti-His6 antibody, 21 nM streptavidin-allophycocyanin) were added. After 35 minutes incubation at 30° C., plates were measured in a Perkin Elmer EnVision multilabel reader. Concentrations causing 50% inhibition (1050) values were determined from percent inhibition values at different compound concentrations by non-linear regression analysis.
(§2) Test compounds were dissolved in DMSO (10 mM) and transferred into 1.4 mL flat bottom or V-shaped Matrix tubes carrying a unique 2D matrix. The stock solutions were stored at […] if not used immediately. For the test procedure the vials were defrosted and identified by a scanner whereby a working sheet was generated that guided the subsequent working steps. Compound dilutions were made in 96 well plates. This format enabled the assay of maximally 40 individual test compounds at 8 concentrations (single points) including 4 reference compounds, if desired (known BET inhibitors from the prior art, for this and other assays of the type disclosed herein). The dilution protocol included the production of “pre-dilution plates”, “master plates” and “assay plates”.
(§3) Pre-dilution plates: 96 polypropylene well plates were used as pre-dilution plates. A total of 4 pre-dilution plates were prepared including 10 test compounds each on the plate positions A1-A10, one standard compound at A11 and one DMSO control at A12. All dilution steps were done on a HamiltonSTAR robot. Master plates: 30 μL of individual compound dilutions including standard compound and controls of the 4 “pre-dilution plates” were transferred into a 384 “master plate” including the following concentrations 10000, 3003, 1000, 300, 100, 30, 10 and 3 μM, respectively in 90% of DMSO. Assay plates: Identical “assay plates” were then prepared by pipetting 50 nL each of compound dilutions of the “master plates” into 384-well “assay plates” by means of a HummingBird 384-channel dispenser. These plates were used directly for the assay which was performed in a total volume of 13.55 μL. This led to a final compound concentration of 37, 11, 3.7, 1.1, 0.37, 0.11, 0.037 and 0.011 μM and a final DMSO concentration of 0.37% in the assay. Cell Growth Inhibition Assay
(Time-resolved FRET reads energy transfer from a long-lived donor to a nearby acceptor.)

Assay [2] concerns the target BRD3 (His-Brd3(20-477)) (Homo sapiens (Human), UniProt Q15059). In words: TR-FRET in-vitro binding assay for BRD3. The procedure: as §1, §2, §3
Assay [3] addresses CREBBP bromodomain (His-CREBBP (1081-1197)) (Homo sapiens (Human), UniProt Q92793). In words: AlphaScreen in-vitro binding assay for CREBBP. As to the method: In order to assess bromodomain selectivity, we set up a binding assay using the bromodomain encoded by the CREBBP gene. […] Reactions were incubated at 30° C. for 35 minutes. Subsequently 4.5 μl per well detection mix (50 mM HEPES, pH 7.5, 0.005% Tween20, 0.02% BSA, 150 mM NaCl, 45 μg/ml Ni-chelate acceptor beads, 45 μg/ml streptavidin-donor beads) (Perkin Elmer)) were added. After 60 minutes incubation at room temperature, plates were measured in a Perkin Elmer EnVision multilabel reader. IC50 values were determined from percent inhibition values at different compound concentrations by non-linear regression analysis.
as §2
Pre-dilution plates: 96 polypropylene well plates were used as pre-dilution plates. A total of 4 pre-dilution plates were prepared including 10 test compounds each on the plate positions A1-A10, one standard compound at A11 and one DMSO control at A12. All dilution steps were done on a HamiltonSTAR robot. […] These plates were used directly for the assay which was performed in a total volume of 13.55 μL. […] Cell Growth Inhibition Assay

Sequence of BRD2 (His-Brd2(60-472)) (P25440 60-472, species assumed): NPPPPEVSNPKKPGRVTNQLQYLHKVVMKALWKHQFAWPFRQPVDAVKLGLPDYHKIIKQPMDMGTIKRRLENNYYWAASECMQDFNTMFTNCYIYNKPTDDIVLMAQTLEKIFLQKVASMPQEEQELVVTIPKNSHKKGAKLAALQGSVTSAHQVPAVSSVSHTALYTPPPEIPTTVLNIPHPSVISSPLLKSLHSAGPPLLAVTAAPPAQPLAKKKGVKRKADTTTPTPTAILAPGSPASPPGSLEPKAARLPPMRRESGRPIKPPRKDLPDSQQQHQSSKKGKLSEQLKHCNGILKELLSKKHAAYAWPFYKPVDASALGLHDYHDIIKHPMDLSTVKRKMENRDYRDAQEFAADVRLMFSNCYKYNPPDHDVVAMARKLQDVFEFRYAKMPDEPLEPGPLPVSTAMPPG
Sequence of CREBBP bromodomain (His-CREBBP (1081-1197)) (Q92793 1081-1197): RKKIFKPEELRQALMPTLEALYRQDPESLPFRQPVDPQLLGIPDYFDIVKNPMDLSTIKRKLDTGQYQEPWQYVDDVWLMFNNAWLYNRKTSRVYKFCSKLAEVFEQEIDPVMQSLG
Sequence of BRD3 (His-Brd3(20-477)) (Q15059 20-477, species assumed): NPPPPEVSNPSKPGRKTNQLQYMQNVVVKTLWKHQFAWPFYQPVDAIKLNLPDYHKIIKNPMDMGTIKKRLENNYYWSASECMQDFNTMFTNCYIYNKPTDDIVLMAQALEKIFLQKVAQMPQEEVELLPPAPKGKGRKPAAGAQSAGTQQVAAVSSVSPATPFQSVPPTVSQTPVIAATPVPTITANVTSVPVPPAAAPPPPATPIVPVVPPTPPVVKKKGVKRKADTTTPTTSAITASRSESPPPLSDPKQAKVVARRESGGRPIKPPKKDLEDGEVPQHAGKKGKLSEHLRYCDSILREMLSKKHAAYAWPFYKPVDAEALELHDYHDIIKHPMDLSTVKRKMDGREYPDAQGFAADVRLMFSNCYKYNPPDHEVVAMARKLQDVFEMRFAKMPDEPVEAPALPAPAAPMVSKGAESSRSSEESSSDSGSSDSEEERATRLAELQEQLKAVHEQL

As to `COc1ncccc1-c1nn(C)c2c1C(=O)N(c1cc(C)c(=O)n(C)c1)C2c1ccc(Cl)cc1` (stereo not drawn) [Example 15, 6-(4-chlorophenyl)-5-(1,5-dimethyl-6-oxo-1,6-dihydropyridin-3-yl)-3-(2-methoxypyridin-3-yl)-1-methyl-5,6-dihydropyrrolo[3,4-c]pyrazol-4(1H)-one], the IC50 in assay [1] is 0.07 µM; in assay [2], 0.0655 µM; in assay [3], 1 µM.

`Cc1[nH]nc2c1C(=O)N(c1cc(Cl)c(=O)n(C)c1)[C@@H]2c1ccc(Cl)cc1` [Example 28, (R)-5-(5-chloro-1-methyl-6-oxo-1,6-dihydropyridin-3-yl)-6-(4-chlorophenyl)-3-methyl-5,6-dihydropyrrolo[3,4-c]pyrazol-4(2H)-one]: the IC50 in assay [1] was 0.17 µM; in assay [2], 0.069 µM; in assay [3], 2.2 µM.

Turning to `COc1ccc(-n2nc(C)c3c2C(c2ccc(Cl)cc2)N(c2cc(C)c(=O)n(C)c2)C3=O)cc1` (stereo not drawn) [Example 13, 6-(4-chlorophenyl)-5-(1,5-dimethyl-6-oxo-1,6-dihydropyridin-3-yl)-1-(4-methoxyphenyl)-3-methyl-5,6-dihydropyrrolo[3,4-c]pyrazol-4(1H)-one], the 50% inhibitory concentration (IC50) in assay [1] is 0.097 µM; in assay [2], 0.0755 µM; in assay [3] it was 2.2 µM.

As to `COc1ccc(-n2nc3c(c2C)C(=O)N(c2cc(C)c(=O)n(C)c2)C3c2ccc(Cl)cc2)cn1` (stereo not drawn) [Example 20a, 6-(4-chlorophenyl)-5-(1,5-dimethyl-6-oxo-1,6-dihydropyridin-3-yl)-2-(6-methoxypyridin-3-yl)-3-methyl-5,6-dihydropyrrolo[3,4-c]pyrazol-4(2H)-one], the results for the concentration for half-maximal inhibition (IC50) in assay [1], in assay [2] and in assay [3] were 0.061 µM, 0.05 µM and 2 µM, respectively.

For `COc1ncc(-n2nc3c(c2C)C(=O)N(c2cc(Cl)c(=O)n(C)c2)C3c2ccc(Cl)cc2)cn1` (stereo not drawn) [Example 8b, 5-(5-chloro-1-methyl-6-oxo-1,6-dihydropyridin-3-yl)-6-(4-chlorophenyl)-2-(2-methoxypyrimidin-5-yl)-3-methyl-5,6-dihydropyrrolo[3,4-c]pyrazol-4(2H)-one], the IC50 was 0.16 µM in assay [1], 0.14 µM in assay [2] and 5.4 µM in assay [3].

Turning to `COc1ncccc1-n1nc2c(c1C)C(=O)N(c1cc(C)c(=O)n(C)c1)[C@@H]2c1ccc(Cl)cc1` [Example 26, (R)-6-(4-chlorophenyl)-5-(1,5-dimethyl-6-oxo-1,6-dihydropyridin-3-yl)-2-(2-methoxypyridin-3-yl)-3-methyl-5,6-dihydropyrrolo[3,4-c]pyrazol-4(2H)-one], the IC50 in assay [1] was 0.11 µM; in assay [2] it was 0.052 µM; in assay [3], 1 µM.

For the molecule `COc1ncc(-n2nc3c(c2C)C(=O)N(c2cc(C)c(=O)n(C)c2)C3c2ccc(Cl)cc2)cn1` (stereo not drawn) [Example 21b, 6-(4-chlorophenyl)-5-(1,5-dimethyl-6-oxo-1,6-dihydropyridin-3-yl)-2-(2-methoxypyrimidin-5-yl)-3-methyl-5,6-dihydropyrrolo[3,4-c]pyrazol-4(2H)-one], the IC50 in assay [1] stood at 0.1 µM; in assay [2] it was 0.094 µM; in assay [3], 4.7 µM.

For the molecule `COc1ncccc1-n1nc2c(c1C)C(=O)N(c1cc(C)c(=O)n(C)c1)C2c1ccc(Cl)cc1` (stereo not drawn) [Example 17b, 6-(4-chlorophenyl)-5-(1,5-dimethyl-6-oxo-1,6-dihydropyridin-3-yl)-2-(2-methoxypyridin-3-yl)-3-methyl-5,6-dihydropyrrolo[3,4-c]pyrazol-4(2H)-one], the values for the IC50 in assay [1], in assay [2] and in assay [3] were 0.053 µM, 0.046 µM and 1.3 µM, respectively.

Take `COc1ncc(-n2nc3c(c2C)C(=O)N(c2cc(C)c(=O)n(C)c2)C3c2ccc(Cl)cc2)c(OC)n1` (stereo not drawn) [Example 14, 6-(4-chlorophenyl)-2-(2,4-dimethoxypyrimidin-5-yl)-5-(1,5-dimethyl-6-oxo-1,6-dihydropyridin-3-yl)-3-methyl-5,6-dihydropyrrolo[3,4-c]pyrazol-4(2H)-one]: the figures for the 50% inhibitory concentration (IC50) in assay [1], in assay [2] and in assay [3] were 0.094 µM, 0.074 µM and 5.1 µM, respectively.

`Cc1cc(N2C(=O)c3c(C4CC4)nn(-c4ccnn4C)c3C2c2ccc(Cl)cc2)cn(C)c1=O` (stereo not drawn) [Example 5, 6-(4-chlorophenyl)-3-cyclopropyl-5-(1,5-dimethyl-6-oxo-1,6-dihydropyridin-3-yl)-1-(1-methyl-1H-pyrazol-5-yl)-5,6-dihydropyrrolo[3,4-c]pyrazol-4(1H)-one]: the IC50 worked out at 0.074 µM in assay [1], 0.082 µM in assay [2] and 5 µM in assay [3].

For `Cc1nn(C(C)C)c2c1C(=O)N(c1cc(C)c(=O)n(C)c1)C2c1ccc(Cl)cc1` (stereo not drawn) [Example 12, 6-(4-chlorophenyl)-5-(1,5-dimethyl-6-oxo-1,6-dihydropyridin-3-yl)-1-isopropyl-3-methyl-5,6-dihydropyrrolo[3,4-c]pyrazol-4(1H)-one], the results for the IC50 in assay [1], in assay [2] and in assay [3] were 0.052 µM, 0.046 µM and 1.4 µM, respectively.

`CCOc1ncccc1-n1nc2c(c1C)C(=O)N(c1cc(C)c(=O)n(C)c1)C2c1ccc(Cl)cc1` (stereo not drawn) [Example 18b, 6-(4-chlorophenyl)-5-(1,5-dimethyl-6-oxo-1,6-dihydropyridin-3-yl)-2-(2-ethoxypyridin-3-yl)-3-methyl-5,6-dihydropyrrolo[3,4-c]pyrazol-4(2H)-one]: the IC50 in assay [1] was determined as 0.035 µM; in assay [2], 0.039 µM; in assay [3], 1.3 µM.
